In article PMC7156412, “Inhibition of the deubiquitinase USP10 induces degradation of SYK” (British Journal of Cancer, 2020):

How the values were obtained:
[1] = tested on: FLT3; assay: Immunoblot of FLT3 protein levels in Ba/F3-FLT3-ITD cells; format: cell-based, murine; conditions: for Induction of FLT3 degradation: Ba/F3-FLT3-ITD cells, 24 hr, 10-20 µM; for FLT3 protein levels: all treated oncogenic FLT3-expressing cells, 24 h
Description: (§1) Protein lysate preparation, immunoblotting and immunoprecipitation were carried out as previously described.[21]

[2] = tested on: USP10; conditions: cited from earlier work
[3] = tested on: SYK; assay: Immunoblot of SYK protein levels in Ba/F3-FLT3-ITD cells; format: cell-based, murine; conditions: 24 h of treatment
Sequence of SYK (P48025 whole entry): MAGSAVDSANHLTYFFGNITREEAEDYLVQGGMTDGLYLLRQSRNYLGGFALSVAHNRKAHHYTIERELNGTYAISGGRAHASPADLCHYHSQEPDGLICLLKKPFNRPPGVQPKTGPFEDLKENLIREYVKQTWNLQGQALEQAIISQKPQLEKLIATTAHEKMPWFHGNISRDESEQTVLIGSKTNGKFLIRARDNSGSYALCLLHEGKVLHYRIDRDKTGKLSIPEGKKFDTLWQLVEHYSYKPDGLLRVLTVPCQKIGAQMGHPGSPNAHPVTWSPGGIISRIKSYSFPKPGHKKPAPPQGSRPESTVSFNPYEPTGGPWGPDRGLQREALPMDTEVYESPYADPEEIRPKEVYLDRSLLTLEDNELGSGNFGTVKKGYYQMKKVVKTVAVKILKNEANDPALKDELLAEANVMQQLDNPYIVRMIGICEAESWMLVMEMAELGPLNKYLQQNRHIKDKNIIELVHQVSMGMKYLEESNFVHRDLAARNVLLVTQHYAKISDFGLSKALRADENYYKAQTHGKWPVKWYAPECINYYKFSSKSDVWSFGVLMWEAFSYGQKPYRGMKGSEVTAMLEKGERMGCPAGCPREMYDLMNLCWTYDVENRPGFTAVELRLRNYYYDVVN
Description: as §1

[4] = tested on: FLT3; assay: Immunoblot of FLT3 in Ba/F3-FLT3-ITD+TKD point mutant cells; format: cell-based, murine; conditions: Ba/F3-FLT3-ITD+TKD point mutant cells (A627T, F691L, G697R, F691I), 24 hr, 5-10 µM
Description: as §1

[5] = tested on: USP7; conditions: cited from earlier work
[6] = tested on: SYK; assay: Immunoblot of SYK in Ba/F3-FLT3-ITD+TKD point mutant cells; format: cell-based, murine; conditions: Ba/F3-FLT3-ITD+TKD point mutant cells (A627T, F691L, G697R, F691I), 24 hr, 5-10 µM
Description: as §1

[7] = tested on: SYK; assay: Immunoblot of SYK protein levels in MV4-11 cells; format: cell-based; conditions: 24 h of treatment
Description: as §1

[8] = tested on: SYK; assay: Immunoblot of SYK protein levels in PBMCs from normal donors; format: cell-based; conditions: 24 h of treatment
Description: as §1

[9] = tested on: Ba/F3-FLT3-ITD cells; set-up: method as in PMID 28967922; conditions: cited from earlier work
[10] = tested on: FLT3-ITD-positive MOLM14 cells; set-up: method as in PMID 28967922; conditions: cited from earlier work

Row | Compound | Induction of FLT3 degradation [1] | USP10 inhibitory activity in biochemical assay ([2]; Ub-AMC as substrate, as previously determined) | Effect on SYK protein levels [3] | FLT3 protein levels [1] | Effect on FLT3 protein levels [4] | Inhibition of USP7 activity [5] | Effect on SYK protein levels [6] | Inhibition of USP10 activity [2] | Effect on SYK protein levels [7] | Effect on SYK protein levels [8] | Combination effect with crenolanib or midostaurin [9] | Combination effect with crenolanib or midostaurin [10]
1 | CCCN(CCC)CCCNC(=O)c1ccc2c(Cl)c3c(nc2c1)CCCC3 [C598-0466] | Induction of FLT3 degradation | showing activity against USP10 | strongly inducing degradation of SYK protein | – | – | – | – | – | – | – | – | –
2 | CC(=O)c1cc([N+](=O)[O-])c(Sc2ccc(F)cc2F)s1 [P22077] | Induction of FLT3 degradation | – | downregulated | lower | induces degradation of SYK and FLT3 | inhibit the activity | induces degradation of SYK and FLT3 | inhibit the activity | downregulated | loss of SYK protein | – | –
3 | HBX19818 | Induction of FLT3 degradation | – | downregulated | lower | – | inhibit the activity | – | inhibit the activity | downregulated | loss of SYK protein | synergistic effects | synergistic effects
